From patent US10647675B2 (priority 2015, dated 2020)
≈ marks a conversion by molar mass, not a printed value.

Tests used:
[1] = tested on: Trichophyton rubrum KD-1130; assay: Antifungal activity evaluation test: minimum inhibitory concentration (MIC), broth dilution by reference to CLSI M38-A2; assay type: cell-based; conditions: KD1130, read-out: MIC (T. rubrum)
Method: (§1) The minimum inhibitory concentration (MIC) for Trichophyton mentagrophytes and Trichophyton rubrum was measured by the following procedure by reference to Clinical and Laboratory standards Institute (CLSI) guidelines M38-A2. Reference document for the measurement method: National Committee for a Clinical Laboratory Standards. Reference method for broth dilution antifungal susceptibility testing of filamentous fungi. Approved standard Second edition M38-A2. Wayne, Pa.: National Committee for a Clinical Laboratory Standards, 2008. • Test compound solution: A test compound was dissolved in dimethyl sulfoxide (DMSO) at a concentration of 2.5 mg/mL to give a stock solution. The stock solution was appropriately diluted with DMSO to prepare a 2-fold dilution series. As control compounds, terbinafine and amorolfine were used. • Test strains: Trichophyton mentagrophytes SM-110 and Trichophyton rubrum KD-1130 were used. • Preparation of fungal culture to be inoculated: The above-mentioned test strain was suspended in 0.05% Tween 80-containing saline, and the fungi of the genus Trichophyton were prepared to a fungal concentration of 1×10^6 cells/mL by using a hemocytometer. Then, using MOPS-buffered RPMI 1640 medium (pH 7.0) as a test medium, a fungal culture of the fungi of the genus Trichophyton was diluted 250-fold (4×10^3 cells/mL) to give a fungal culture for inoculation. • MIC measurement of genus Trichophyton fungi: MOPS-buffered RPMI 1640 medium (pH 7.0) was dispensed by 100 μL to given wells of a 96 well U-bottom microplate. Then, the test compound solution (2 μL) was added, the mixture was sufficiently stirred by a plate mixer. The fungal culture (100 μL) was inoculated and the mixture was cultured at 35° C. for 4 days (final fungal concentration: 2×10^3 cells/mL). After the culture, the minimum drug concentration of a well in which a growth inhibitory action of not less than 80% was visually observed as compared to a growth control was taken as a minimum inhibitory concentration (MIC: μg/mL).
(§2) The abbreviations in the Tables mean the following fungi and compounds. • T. menta.: Trichophyton mentagrophytes • T. rubrum: Trichophyton rubrum • TBF: terbinafine • AMF: amorolfine

[2] = tested on: Trichophyton mentagrophytes SM-110; assay: as above; assay type: cell-based; conditions: SM110, read-out: MIC (T. menta.)
Method: as §1, §2

| MIC [1] [µg/mL] | MIC [2] [µg/mL] | SMILES |
| --- | --- | --- |
| ≤ 0.1 | ≤ 0.1 | COc1ncc(F)cc1-c1cccnc1Oc1cnc(C(F)(F)F)c(C)c1 [I-119, 5-fluoro-2-methoxy-2′-{[5-methyl-6-(trifluoromethyl)pyridin-3-yl]oxy}-3,3′-bipyridine] |
| ≤ 0.1 | ≤ 0.1 | COc1nc(C)ccc1-c1cccnc1Oc1ccc(C(F)(F)F)nc1 [I-29, 2-methoxy-6-methyl-2′-{[6-(trifluoromethyl)pyridin-3-yl]oxy}-3,3′-bipyridine] |
| 0.2 to 0.78 (≈ 0.581 to 2.27 µM) | 0.2 to 0.78 (≈ 0.581 to 2.27 µM) | COc1ccncc1-c1cccnc1Oc1ccc(OC(F)F)cc1 [I-238, 2-[4-(difluoromethoxy)phenoxy]-4′-methoxy-3,3′-bipyridine] |
| ≤ 0.1 | ≤ 0.1 | C=C(C)c1ncc(Oc2ncccc2-c2ccc(F)cc2OC)cn1 [I-378, 5-{[3-(4-fluoro-2-methoxyphenyl)pyridin-2-yl]oxy}-2-(prop-1-en-2-yl)pyrimidine] |
| 1.56 to 6.25 (≈ 4.2 to 16.8 µM) | 1.56 to 6.25 (≈ 4.2 to 16.8 µM) | Cn1nc(-c2cccnc2Oc2ccc(C(F)(F)F)nc2)c2cccnc21 [I-47, 1-methyl-3-(2-{[6-(trifluoromethyl)pyridin-3-yl]oxy}pyridin-3-yl)-1H-pyrazolo[3,4-b]pryidine] |
| 0.2 to 0.78 (≈ 0.534 to 2.08 µM) | 1.56 to 6.25 (≈ 4.17 to 16.7 µM) | COC(=O)c1ccccc1-c1cccnc1Oc1ccc(C(F)(F)F)nc1 [I-20, methyl 2-(2-{[6-(trifluoromethyl)pyridin-3-yl]oxy}pyridin-3-yl)benzoate] |
| 0.2 to 0.78 (≈ 0.552 to 2.15 µM) | 0.2 to 0.78 (≈ 0.552 to 2.15 µM) | COc1ncccc1-c1cccnc1Sc1ccc(C(F)(F)F)cc1 [I-435] |
| ≤ 0.1 | ≤ 0.1 | COc1ccncc1-c1cccnc1Oc1ccc2c(c1)CCCC2 [I-267, 4′-methoxy-[(5,6,7,8-tetrahydronaphthalen-2-yl)oxy]-3,3′-bipyridine] |
| 0.2 to 0.78 (≈ 0.468 to 1.82 µM) | 0.2 to 0.78 (≈ 0.468 to 1.82 µM) | COc1ccccc1-c1cccnc1Oc1ccc(C(F)(F)CN2CCOCC2)nc1 [I-148, 4-[2,2-difluoro-2-(5-{[3-(2-methoxyphenyl)pyridin-2-yl]oxy}pyridin-2-yl)-ethyl]morpholine] |
| ≤ 0.1 | ≤ 0.1 | COc1cc(-c2cncnc2Oc2ccc(C(F)F)nc2)c(F)cc1F [I-363, 5-(2,4-difluoro-5-methoxyphenyl)-4-{[6-(difluoromethyl)pyridin-3-yl]oxy}pyrimidine] |
| ≤ 0.1 | ≤ 0.1 | COc1ncc(Cl)cc1-c1cccnc1Oc1cnc(C(F)(F)F)nc1 [I-180, 5-chloro-2-methoxy-2′-{[2-(trifluoromethyl)pyrimidin-5-yl]oxy}-3,3′-bipyridine] |
| 0.2 to 0.78 (≈ 0.473 to 1.84 µM) | 0.2 to 0.78 (≈ 0.473 to 1.84 µM) | COc1cc(F)ccc1-c1cccnc1Oc1cnc(I)nc1 [I-191, 5-{[3-(4-fluoro-2-methoxyphenyl)pyridin-2-yl]oxy}-2-iodopyrimidine] |
| ≤ 0.1 | 0.2 to 0.78 (≈ 0.662 to 2.58 µM) | C#Cc1ccc(Oc2ncccc2-c2cnccc2OC)cc1 [I-260, 2-(4-ethynylphenoxy)-4′-methoxy-3,3′-bipyridine] |
| 1.56 to 6.25 (≈ 4.5 to 18 µM) | 1.56 to 6.25 (≈ 4.5 to 18 µM) | COc1ccccc1-c1cccnc1Oc1cnc2c(c1)CCCC2=O [I-141, 3-{[3-(2-methoxyphenyl)pyridin-2-yl]oxy}-6,7-dihydroquinolin-8(5H)-one] |
| ≤ 0.1 | ≤ 0.1 | COc1ccncc1-c1cccnc1Oc1ccc(Br)cc1 [I-234, 2-(4-bromophenoxy)-4′-methoxy-3,3′-bipyridine] |
| 0.2 to 0.78 (≈ 0.626 to 2.44 µM) | 0.2 to 0.78 (≈ 0.626 to 2.44 µM) | Cn1nccc1-c1cccnc1Oc1ccc(C(F)(F)F)cc1 [I-221, 3-(1-methyl-1H-pyrazol-5-yl)-2-[4-(trifluoromethyl)phenoxy]pyridine] |
| 0.2 to 0.78 (≈ 0.554 to 2.16 µM) | 0.2 to 0.78 (≈ 0.554 to 2.16 µM) | O=[N+]([O-])c1ccccc1-c1cccnc1Oc1ccc(C(F)(F)F)nc1 [I-15, 3-(2-nitrophenyl)-2-{[6-(trifluoromethyl)pyridin-3-yl]oxy}pyridine] |

| SMILES | MIC [1] [µg/mL] | MIC [2] [µg/mL] |
| --- | --- | --- |
| COc1ccncc1-c1cccnc1Oc1ccc(C#C[Si](C)(C)C)cc1 [I-259, 4′-methoxy-2-{4-[(trimethylsilyl)ethynyl]phenoxy}-3,3′-bipyridine] | 0.2 to 0.78 (≈ 0.534 to 2.08 µM) | 0.2 to 0.78 (≈ 0.534 to 2.08 µM) |
